Results from PubChem BioAssay AID248 (DTP/NCI, 2004).
Several values for one entry are separate records, joined by “and”; a condition that tells them apart may be missing. Equal values may be shown once. Inconclusive results and toxic doses are left out.

System: L1210 leukemia ip in BDF1 mice, survival T/C
Experiment: NCI In Vivo Anticancer Drug Screen. Data for tumor model L1210 Leukemia (intraperitoneal) in B6D2F1 (BDF1) mice
Settings: endpoint: mean survival time, higher = longer survival
In short: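 In this screen, tumor-bearing mice given compound are compared to those given vehicle, and their survival values are reported as a treated-to-control quotient.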

[1] = dose: 50.0 mg/kg/injection, schedule: Q01DX001 (ip), vehicle: saline
[2] = dose: 100.0 mg/kg/injection, schedule: Q01DX001 (ip), vehicle: saline
[3] = dose: 5.0 mg/kg/injection, schedule: Q01DX001 (ip), vehicle: saline
[4] = dose: 10.0 mg/kg/injection, schedule: Q01DX001 (ip), vehicle: saline
[5] = dose: 20.0 mg/kg/injection, schedule: Q01DX001 (ip), vehicle: saline
[6] = dose: 100.0 mg/kg/injection, schedule: Q01DX009 (ip), vehicle: Klucel (hydroxypropylcellulose) (HPC)
[7] = dose: 100.0 mg/kg/injection, schedule: Q04DX003 (ip), vehicle: Klucel (hydroxypropylcellulose) (HPC)
[8] = dose: 200.0 mg/kg/injection, schedule: Q01DX009 (ip), vehicle: Klucel (hydroxypropylcellulose) (HPC)
[9] = dose: 200.0 mg/kg/injection, schedule: Q04DX003 (ip), vehicle: Klucel (hydroxypropylcellulose) (HPC)
[10] = dose: 400.0 mg/kg/injection, schedule: Q01DX009 (ip), vehicle: Klucel (hydroxypropylcellulose) (HPC)
[11] = dose: 400.0 mg/kg/injection, schedule: Q04DX003 (ip), vehicle: Klucel (hydroxypropylcellulose) (HPC)
[12] = dose: 100.0 mg/kg/injection, schedule: Q01DX001 (ip), vehicle: Klucel (hydroxypropylcellulose) (HPC)
[13] = dose: 200.0 mg/kg/injection, schedule: Q01DX001 (ip), vehicle: Klucel (hydroxypropylcellulose) (HPC)
[14] = dose: 400.0 mg/kg/injection, schedule: Q01DX001 (ip), vehicle: Klucel (hydroxypropylcellulose) (HPC)
[15] = dose: 50.0 mg/kg/injection, schedule: Q01DX001 (ip), vehicle: carboxymethylcellulose (CMC)
[16] = dose: 100.0 mg/kg/injection, schedule: Q01DX001 (ip), vehicle: carboxymethylcellulose (CMC)
[17] = dose: 200.0 mg/kg/injection, schedule: Q01DX001 (ip), vehicle: carboxymethylcellulose (CMC)
[18] = dose: 100.0 mg/kg/injection, schedule: Q04DX003 (ip), vehicle: saline with Tween-80
[19] = dose: 200.0 mg/kg/injection, schedule: Q04DX003 (ip), vehicle: saline with Tween-80

For O=C(OCCN(CCOC(=O)c1ccc([N+](=O)[O-])cc1)c1c[nH]c(=O)[nH]c1=O)c1ccc([N+](=O)[O-])cc1, the T/C [1] was 93 % of control, the T/C [2] was 93 % of control and the T/C (dose: 200.0 mg/kg/injection, schedule: Q01DX001 (ip), vehicle: saline) was 93 % of control. For the same compound, the T/C (dose: 400.0 mg/kg/injection, schedule: Q01DX001 (ip), vehicle: saline) was 110 % of control.
In the case of CC(=O)N(N=O)c1ccc(C)cc1, the T/C [3] is reported as 101 % of control, the T/C [4] is reported as 92 % of control and the T/C [5] is reported as 92 % of control. For the same compound, the T/C (dose: 40.0 mg/kg/injection, schedule: Q01DX001 (ip), vehicle: saline) was 106 % of control.
With Nc1ccc(CCc2ccc(N)cc2[N+](=O)[O-])c([N+](=O)[O-])c1 the T/C [6] was 101 % of control, the T/C [7] was 96 % of control and the T/C [8] was 101 % of control. The T/C [9] was 109 % of control, the T/C [10] was 92 % of control and the T/C [11] was 90 % of control.
COc1ccc(NNP(=O)(CCl)N(CCCl)CCCl)cc1 (configuration not stated) was tested, and the T/C [12] was 104 % of control, the T/C [13] was 108 % of control and the T/C [14] was 108 % of control.
For CC1CCC2(NC1)OC1CC3C4CC=C5CC(OC(=O)N(CCCl)CCCl)CCC5(C)C4CCC3(C)C1C2C (configuration not stated), the T/C (dose: 100.0 mg/kg/injection, schedule: Q01DX001 (sc), vehicle: steriod suspending solution) was 97 % of control, the T/C (dose: 200.0 mg/kg/injection, schedule: Q01DX001 (sc), vehicle: steriod suspending solution) was 123 % of control and the T/C (dose: 400.0 mg/kg/injection, schedule: Q01DX001 (sc), vehicle: steriod suspending solution) was 97 % of control.
With Cc1ccc2nc(-c3ccccc3N)[nH]c2c1 the T/C (dose: 100.0 mg/kg/injection, schedule: Q01DX009 (ip), vehicle: saline with Tween-80) was 97 % of control, the T/C (dose: 200.0 mg/kg/injection, schedule: Q01DX009 (ip), vehicle: saline with Tween-80) was 92 % of control and the T/C (dose: 400.0 mg/kg/injection, schedule: Q01DX009 (ip), vehicle: saline with Tween-80) was 92 % of control.
With CN(C)CCCNc1c2ccccc2nc2ccc(F)cc12 the T/C [3] was 100 % of control, the T/C [4] was 96 % of control and the T/C [5] was 107 % of control.
For CCOC(=O)/C(C)=N\Nc1ccc([N+](=O)[O-])cc1, the T/C [15] was 92 % of control, the T/C [16] was 90 % of control and the T/C [17] was 92 % of control. For the same compound, the T/C (dose: 400.0 mg/kg/injection, schedule: Q01DX001 (ip), vehicle: carboxymethylcellulose (CMC)) was 103 % of control.
CC(=O)Nc1ccc2c(c1)C(=O)NC2=O was tested, and the T/C [12] was 93 % of control, the T/C [13] was 90 % of control and the T/C [14] was 90 % of control.
For c1ccc2c(c1)Sc1ccccc1N2CCCN1CCCC1, the T/C (dose: 6.25 mg/kg/injection, schedule: Q04DX003 (ip), vehicle: saline) was 108 % of control, the T/C (dose: 12.5 mg/kg/injection, schedule: Q04DX003 (ip), vehicle: saline) was 105 % of control and the T/C (dose: 25.0 mg/kg/injection, schedule: Q04DX003 (ip), vehicle: saline) was 116 % of control. The T/C [1] was 108 % of control and 123 % of control, the T/C (dose: 50.0 mg/kg/injection, schedule: Q04DX003 (ip), vehicle: saline) was 106 % of control and the T/C [2] was 97 % of control and 103 % of control.
CS/C(N)=N\[N+](=O)[O-] was tested, and the T/C (dose: 50.0 mg/kg/injection, schedule: Q01DX009 (ip), vehicle: Klucel (hydroxypropylcellulose) (HPC)) was 89 % of control, the T/C [6] was 110 % of control and the T/C [8] was 114 % of control.
With CSc1ncc(C(N)=O)c(N)n1 the T/C (dose: 222.0 mg/kg/injection, schedule: Q01DX Z (ip), vehicle: saline) was 102 % of control, the T/C (dose: 333.0 mg/kg/injection, schedule: Q01DX Z (ip), vehicle: saline) was 89 % of control and the T/C (dose: 500.0 mg/kg/injection, schedule: Q01DX Z (ip), vehicle: saline) was 95 % of control.
C=CCCC(=O)O was tested, and the T/C (dose: 50.0 mg/kg/injection, schedule: Q01DX001 (ip), vehicle: saline with Tween-80) was 96 % of control, the T/C (dose: 100.0 mg/kg/injection, schedule: Q01DX001 (ip), vehicle: saline with Tween-80) was 100 % of control and the T/C (dose: 200.0 mg/kg/injection, schedule: Q01DX001 (ip), vehicle: saline with Tween-80) was 91 % of control.
CSc1nnc2scnn12 was tested, and the T/C [15] was 104 % of control, the T/C [16] was 104 % of control and the T/C [17] was 101 % of control.
In the case of CC[N+](CC)(CC)CCCCCCCC[N+](CC)(CC)CC, the T/C (dose: 0.78 mg/kg/injection, schedule: Q01DX009 (ip), vehicle: water) is reported as 110 % of control, the T/C (dose: 0.78 mg/kg/injection, schedule: Q04DX003 (ip), vehicle: saline) is reported as 107 % of control and the T/C (dose: 1.56 mg/kg/injection, schedule: Q01DX009 (ip), vehicle: water) is reported as 111 % of control. The T/C (dose: 1.56 mg/kg/injection, schedule: Q04DX003 (ip), vehicle: saline) was 104 % of control.
With CC(C)c1ccc(/C(=N\NC(N)=S)C2CC2)cc1 the T/C (dose: 1.0 mg/kg/injection, schedule: Q01DX Z (ip), vehicle: methylcellulose (MC)) was 93 % of control, the T/C (dose: 2.0 mg/kg/injection, schedule: Q01DX Z (ip), vehicle: methylcellulose (MC)) was 91 % of control and the T/C (dose: 5.0 mg/kg/injection, schedule: Q01DX Z (ip), vehicle: methylcellulose (MC)) was 94 % of control. The T/C (dose: 10.0 mg/kg/injection, schedule: Q01DX Z (ip), vehicle: methylcellulose (MC)) was 102 % of control.
For COC(OC)C1=C(Cl)C(Cl)=C(Cl)/C1=N\Nc1ccccc1, the T/C [7] was 109 % of control, the T/C [9] was 98 % of control and the T/C [11] was 100 % of control.
CC(C)N1CNC(=O)C12CCN(CC1COc3ccccc3O1)CC2 (configuration not stated) was tested, and the T/C [18] was 104 % of control and the T/C [19] was 106 % of control.
O=C(Nc1nccs1)Nc1ccccc1Cl was tested, and the T/C [6] was 96 % of control, the T/C (dose: 100.0 mg/kg/injection, schedule: Q04DX002 (ip), vehicle: Klucel (hydroxypropylcellulose) (HPC)) was 91 % of control and the T/C [8] was 91 % of control. For the same compound, the T/C (dose: 200.0 mg/kg/injection, schedule: Q04DX002 (ip), vehicle: Klucel (hydroxypropylcellulose) (HPC)) was 98 % of control, the T/C [10] was 96 % of control and the T/C (dose: 400.0 mg/kg/injection, schedule: Q04DX002 (ip), vehicle: Klucel (hydroxypropylcellulose) (HPC)) was 107 % of control.
In the case of Cc1c2cnccc2c(C)c2c1c1ccccc1n2C, the T/C (dose: 29.0 mg/kg/injection, schedule: Q01DX Z (ip), vehicle: saline) is reported as 109 % of control, the T/C (dose: 44.0 mg/kg/injection, schedule: Q01DX Z (ip), vehicle: saline) is reported as 123 % of control and the T/C (dose: 66.0 mg/kg/injection, schedule: Q01DX Z (ip), vehicle: saline) is reported as 120 % of control. For the same compound, the T/C (dose: 66.0 mg/kg/injection, schedule: Q01DX Z (oral), vehicle: saline) was 112 % of control, the T/C (dose: 100.0 mg/kg/injection, schedule: Q01DX Z (ip), vehicle: saline) was 121 % of control and the T/C (dose: 100.0 mg/kg/injection, schedule: Q01DX Z (oral), vehicle: saline) was 115 % of control. For the same compound, the T/C (dose: 150.0 mg/kg/injection, schedule: Q01DX Z (oral), vehicle: saline) was 155 % of control and the T/C (dose: 225.0 mg/kg/injection, schedule: Q01DX Z (oral), vehicle: saline) was 171 % of control.
With Cc1ccc(S(=O)(=O)N(C)Cc2ccccc2)cc1 the T/C [18] was 95 % of control, the T/C [19] was 101 % of control and the T/C (dose: 400.0 mg/kg/injection, schedule: Q04DX003 (ip), vehicle: saline with Tween-80) was 101 % of control.
CCCCNC(=O)NC1CC(OC2CC(O)(C(C)=O)Cc3c(O)c4c(c(O)c32)C(=O)c2c(OC)cccc2C4=O)OC(C)C1O (configuration not stated) was tested, and the T/C (dose: 1.0 mg/kg/injection, schedule: Q04DX003 (ip), vehicle: water) was 104 % of control, the T/C (dose: 2.0 mg/kg/injection, schedule: Q04DX003 (ip), vehicle: water) was 97 % of control and the T/C (dose: 4.0 mg/kg/injection, schedule: Q04DX003 (ip), vehicle: water) was 98 % of control. The T/C (dose: 8.0 mg/kg/injection, schedule: Q04DX003 (ip), vehicle: water) was 98 % of control, the T/C (dose: 16.0 mg/kg/injection, schedule: Q04DX003 (ip), vehicle: water) was 94 % of control and the T/C (dose: 32.0 mg/kg/injection, schedule: Q04DX003 (ip), vehicle: water) was 101 % of control.
